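In this assay, cells in 96-well plates receive the compound at five concentrations for 48 hours. Endpoints are linearly interpolated between the surrounding concentrations. Definition used: TGI = concentration required for complete inhibition of growth.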
Assays:
Experiment in all cases: growth of human tumour cells (NCI), 48 h
786-0 renal = tested on: 786-0 renal
A498 renal = tested on: A498 renal
A549 NSCLC = tested on: A549 NSCLC
ACHN renal = tested on: ACHN renal
CAKI-1 renal = tested on: CAKI-1 renal
CCRF-CEM leukemia = tested on: CCRF-CEM leukemia
COLO 205 colon = tested on: COLO 205 colon
DLD-1 colon = tested on: DLD-1 colon
DMS 114 small cell lung = tested on: DMS 114 small cell lung
DMS 273 small cell lung = tested on: DMS 273 small cell lung
EKVX NSCLC = tested on: EKVX NSCLC
HCC-2998 colon = tested on: HCC-2998 colon
HCT-116 colon = tested on: HCT-116 colon
HCT-15 colon = tested on: HCT-15 colon
HL-60(TB) leukemia = tested on: HL-60(TB) leukemia
HOP-18 NSCLC = tested on: HOP-18 NSCLC
HOP-62 NSCLC = tested on: HOP-62 NSCLC
HOP-92 NSCLC = tested on: HOP-92 NSCLC
HT29 colon = tested on: HT29 colon
IGROV1 ovarian = tested on: IGROV1 ovarian
K-562 leukemia = tested on: K-562 leukemia
KM12 colon = tested on: KM12 colon
KM20L2 colon = tested on: KM20L2 colon
LOX IMVI melanoma = tested on: LOX IMVI melanoma
LXFL 529 NSCLC = tested on: LXFL 529 NSCLC
M14 melanoma = tested on: M14 melanoma
M19-MEL melanoma = tested on: M19-MEL melanoma
MALME-3M melanoma = tested on: MALME-3M melanoma
MOLT-4 leukemia = tested on: MOLT-4 leukemia
NCI-H23 lung = tested on: NCI-H23 lung
NCI-H460 lung = tested on: NCI-H460 lung
NCI-H522 lung = tested on: NCI-H522 lung
OVCAR-3 ovarian = tested on: OVCAR-3 ovarian
OVCAR-4 ovarian = tested on: OVCAR-4 ovarian
OVCAR-5 ovarian = tested on: OVCAR-5 ovarian
OVCAR-8 ovarian = tested on: OVCAR-8 ovarian
RPMI-8226 leukemia = tested on: RPMI-8226 leukemia
RXF 393 renal = tested on: RXF 393 renal
RXF-631 renal = tested on: RXF-631 renal
SF-268 CNS = tested on: SF-268 CNS
SF-295 CNS = tested on: SF-295 CNS
SF-539 CNS = tested on: SF-539 CNS
SK-MEL-2 melanoma = tested on: SK-MEL-2 melanoma
SK-MEL-5 melanoma = tested on: SK-MEL-5 melanoma
SK-OV-3 ovarian = tested on: SK-OV-3 ovarian
SN12C renal = tested on: SN12C renal
SNB-19 CNS = tested on: SNB-19 CNS
SNB-75 CNS = tested on: SNB-75 CNS
SNB-78 CNS = tested on: SNB-78 CNS
SW-620 colon = tested on: SW-620 colon
TK-10 renal = tested on: TK-10 renal
U251 CNS = tested on: U251 CNS
UACC-257 melanoma = tested on: UACC-257 melanoma
UACC-62 melanoma = tested on: UACC-62 melanoma
UO-31 renal = tested on: UO-31 renal
XF 498 CNS = tested on: XF 498 CNS
NCI-H226 lung = tested on: NCI-H226 lung
SR leukemia = tested on: SR leukemia
SK-MEL-28 melanoma = tested on: SK-MEL-28 melanoma

COC(=O)c1cc2cc(OC)c(OC)cc2cc(C(=O)OC)c1=O
TGI (786-0 renal): > 100 µM
TGI (A498 renal): > 100 µM
TGI (A549 NSCLC): > 100 µM
TGI (ACHN renal): > 100 µM
TGI (CAKI-1 renal): > 100 µM
TGI (CCRF-CEM leukemia): > 100 µM
TGI (COLO 205 colon): > 100 µM
TGI (DLD-1 colon): > 100 µM
TGI (DMS 114 small cell lung): > 100 µM
TGI (DMS 273 small cell lung): > 100 µM
TGI (EKVX NSCLC): > 100 µM
TGI (HCC-2998 colon): > 100 µM
TGI (HCT-116 colon): > 100 µM
TGI (HCT-15 colon): > 100 µM
TGI (HL-60(TB) leukemia): > 100 µM
TGI (HOP-18 NSCLC): > 100 µM
TGI (HOP-62 NSCLC): > 100 µM
TGI (HOP-92 NSCLC): > 100 µM
TGI (HT29 colon): > 100 µM
TGI (IGROV1 ovarian): > 100 µM
TGI (K-562 leukemia): > 100 µM
TGI (KM12 colon): > 100 µM
TGI (KM20L2 colon): > 100 µM
TGI (LOX IMVI melanoma): > 100 µM
TGI (LXFL 529 NSCLC): > 100 µM
TGI (M14 melanoma): > 100 µM
TGI (M19-MEL melanoma): > 100 µM
TGI (MALME-3M melanoma): > 100 µM
TGI (MOLT-4 leukemia): > 100 µM
TGI (NCI-H23 lung): > 100 µM
TGI (NCI-H460 lung): > 100 µM
TGI (NCI-H522 lung): > 100 µM
TGI (OVCAR-3 ovarian): > 100 µM
TGI (OVCAR-4 ovarian): > 100 µM
TGI (OVCAR-5 ovarian): > 100 µM
TGI (OVCAR-8 ovarian): > 100 µM
TGI (RPMI-8226 leukemia): > 100 µM
TGI (RXF 393 renal): > 100 µM
TGI (RXF-631 renal): > 100 µM
TGI (SF-268 CNS): > 100 µM
TGI (SF-295 CNS): > 100 µM
TGI (SF-539 CNS): > 100 µM
TGI (SK-MEL-2 melanoma): > 100 µM
TGI (SK-MEL-5 melanoma): > 100 µM
TGI (SK-OV-3 ovarian): > 100 µM
TGI (SN12C renal): > 100 µM
TGI (SNB-19 CNS): > 100 µM
TGI (SNB-75 CNS): > 100 µM
TGI (SNB-78 CNS): > 100 µM
TGI (SW-620 colon): > 100 µM
TGI (TK-10 renal): > 100 µM
TGI (U251 CNS): > 100 µM
TGI (UACC-257 melanoma): > 100 µM
TGI (UACC-62 melanoma): > 100 µM
TGI (UO-31 renal): > 100 µM
TGI (XF 498 CNS): > 100 µM

COc1ccc(C(=O)Cc2ccc(Cl)cc2)cc1OC
TGI (A498 renal): > 100 µM
TGI (A549 NSCLC): > 100 µM
TGI (ACHN renal): > 100 µM
TGI (CAKI-1 renal): > 100 µM
TGI (CCRF-CEM leukemia): > 100 µM
TGI (DLD-1 colon): > 100 µM
TGI (DMS 114 small cell lung): > 100 µM
TGI (DMS 273 small cell lung): > 100 µM
TGI (EKVX NSCLC): > 100 µM
TGI (HCC-2998 colon): > 100 µM
TGI (HCT-116 colon): > 100 µM
TGI (HCT-15 colon): > 100 µM
TGI (HL-60(TB) leukemia): > 100 µM
TGI (HOP-18 NSCLC): > 100 µM
TGI (HOP-62 NSCLC): > 100 µM
TGI (HT29 colon): > 100 µM
TGI (IGROV1 ovarian): > 100 µM
TGI (K-562 leukemia): > 100 µM
TGI (KM20L2 colon): > 100 µM
TGI (LOX IMVI melanoma): > 100 µM
TGI (LXFL 529 NSCLC): > 100 µM
TGI (M14 melanoma): > 100 µM
TGI (M19-MEL melanoma): > 100 µM
TGI (MALME-3M melanoma): > 100 µM
TGI (MOLT-4 leukemia): > 100 µM
TGI (NCI-H226 lung): > 100 µM
TGI (NCI-H23 lung): > 100 µM
TGI (NCI-H460 lung): > 100 µM
TGI (NCI-H522 lung): > 100 µM
TGI (OVCAR-3 ovarian): > 100 µM
TGI (OVCAR-4 ovarian): > 100 µM
TGI (OVCAR-5 ovarian): > 100 µM
TGI (OVCAR-8 ovarian): > 100 µM
TGI (RPMI-8226 leukemia): > 100 µM
TGI (RXF 393 renal): > 100 µM
TGI (RXF-631 renal): > 100 µM
TGI (SF-268 CNS): > 100 µM
TGI (SF-295 CNS): > 100 µM
TGI (SF-539 CNS): > 100 µM
TGI (SK-MEL-2 melanoma): > 100 µM
TGI (SK-MEL-5 melanoma): > 100 µM
TGI (SK-OV-3 ovarian): > 100 µM
TGI (SN12C renal): > 100 µM
TGI (SNB-19 CNS): > 100 µM
TGI (SNB-75 CNS): 86.9 µM
TGI (SNB-78 CNS): > 100 µM
TGI (SR leukemia): > 100 µM
TGI (SW-620 colon): > 100 µM
TGI (TK-10 renal): > 100 µM
TGI (U251 CNS): > 100 µM
TGI (UACC-257 melanoma): > 100 µM
TGI (UACC-62 melanoma): > 100 µM
TGI (UO-31 renal): > 100 µM
TGI (XF 498 CNS): > 100 µM

Nc1ccc(N)c2c1C(=O)c1ccccc1C2=O
TGI (786-0 renal): > 100 µM
TGI (A498 renal): > 100 µM
TGI (A549 NSCLC): > 100 µM
TGI (ACHN renal): > 100 µM
TGI (CAKI-1 renal): > 100 µM
TGI (CCRF-CEM leukemia): > 100 µM
TGI (COLO 205 colon): > 100 µM
TGI (DLD-1 colon): > 100 µM
TGI (DMS 114 small cell lung): > 100 µM
TGI (DMS 273 small cell lung): > 100 µM
TGI (EKVX NSCLC): > 100 µM
TGI (HCC-2998 colon): 72.9 µM
TGI (HCT-116 colon): > 100 µM
TGI (HCT-15 colon): > 100 µM
TGI (HOP-18 NSCLC): > 100 µM
TGI (HOP-62 NSCLC): > 100 µM
TGI (HOP-92 NSCLC): > 100 µM
TGI (HT29 colon): > 100 µM
TGI (IGROV1 ovarian): > 100 µM
TGI (K-562 leukemia): > 100 µM
TGI (KM12 colon): > 100 µM
TGI (KM20L2 colon): > 100 µM
TGI (LOX IMVI melanoma): > 100 µM
TGI (LXFL 529 NSCLC): > 100 µM
TGI (M14 melanoma): > 100 µM
TGI (M19-MEL melanoma): > 100 µM
TGI (MALME-3M melanoma): > 100 µM
TGI (MOLT-4 leukemia): > 100 µM
TGI (NCI-H226 lung): > 100 µM
TGI (NCI-H23 lung): > 100 µM
TGI (NCI-H460 lung): > 100 µM
TGI (NCI-H522 lung): > 100 µM
TGI (OVCAR-3 ovarian): > 100 µM
TGI (OVCAR-4 ovarian): > 100 µM
TGI (OVCAR-5 ovarian): > 100 µM
TGI (OVCAR-8 ovarian): > 100 µM
TGI (RPMI-8226 leukemia): > 100 µM
TGI (RXF-631 renal): > 100 µM
TGI (SF-268 CNS): > 100 µM
TGI (SF-539 CNS): > 100 µM
TGI (SK-MEL-2 melanoma): > 100 µM
TGI (SK-MEL-28 melanoma): > 100 µM
TGI (SK-MEL-5 melanoma): > 100 µM
TGI (SK-OV-3 ovarian): > 100 µM
TGI (SN12C renal): > 100 µM
TGI (SNB-19 CNS): > 100 µM
TGI (SNB-75 CNS): > 100 µM
TGI (SNB-78 CNS): > 100 µM
TGI (SW-620 colon): > 100 µM
TGI (TK-10 renal): 94 µM
TGI (U251 CNS): > 100 µM
TGI (UACC-257 melanoma): > 100 µM
TGI (UACC-62 melanoma): > 100 µM
TGI (UO-31 renal): > 100 µM
TGI (XF 498 CNS): > 100 µM

Reference: PubChem BioAssay (NCI)
